Laboratory results from the OPERA property sets (Mansouri et al. 2018).

conditions: not given

Compound | boiling point [°C] | melting point [°C] | log10 Henry constant (atm·m³/mol) | log10 vapour pressure (mmHg) | log10 Koc (L/kg) | ready biodegradability | log10 Koa | log10 biodegradation half-life (days)
CN(C)CCN(C)C | 121 | -55 | – | – | – | – | – | –
CC(CN(C)C)CN1c2ccccc2Sc2ccccc21 (stereo unspecified) | – | 68 | – | – | – | – | – | –
CC(=O)C1CCCCC1 | 180 | – | -4.47 | – | – | – | – | –
C=C(C)Br | 48.4 | -126 | – | – | – | – | – | –
CC(C)(C#N)O[C@@H]1O[C@H](CO)[C@@H](O)[C@H](O)[C@H]1O | – | 145 | – | – | – | – | – | –
O=c1[nH]c(=O)n(C2CCCO2)cc1F (stereo unspecified) | – | 172 | – | – | – | – | – | –
CC(C)C(C)CC(C)(C)C (stereo unspecified) | 148 | – | – | 0.779 | – | – | – | –
C/C(=C(\CCOC(=O)c1ccccc1)SS/C(CCOC(=O)c1ccccc1)=C(/C)N(C=O)Cc1cnc(C)nc1N)N(C=O)Cc1cnc(C)nc1N | – | 146 | – | – | – | – | – | –
CC1(C)CC[C@]2(C)CC[C@]3(C)C(=CC[C@@H]4[C@@]5(C)CC[C@H](O)C(C)(C)[C@@H]5CC[C@]43C)[C@@H]2C1 | – | 197 | – | – | – | – | – | –
C1CNC1 | 63 | – | – | 2.25 | – | – | – | –
CC(C)Cl | 35.7 | -117 | – | 2.71 | – | – | – | –
CN1CCN(CCCN2c3ccccc3Sc3ccccc32)CC1 | – | 52 | – | – | – | – | – | –
CCC=C(C)CC | 112 | – | – | 1.91 | – | – | – | –
CC(=O)Nc1ccc(S(N)(=O)=O)cc1 | – | 220 | – | – | – | – | – | –
BrCC(Br)CBr | 222 | 16.9 | – | – | – | – | – | –
Cc1ccc2c(Cl)cc(Cl)c(O)c2n1 | – | 114 | – | – | – | – | – | –
CC(O)(CCl)CCl | 174 | – | – | – | – | – | – | –
CNC(=O)Oc1ccccc1C1OCCO1 | – | 114 | – | -6.52 | 1.6 | – | – | –
Cc1ccc(Cl)cc1[N+](=O)[O-] | 242 | 38 | – | – | – | – | – | –
Cc1cnc(C)[nH]1 | 267 | 92 | – | – | – | – | – | –
O=c1ccc2ccc(O)cc2o1 | – | 230 | – | – | – | – | – | –
NC(=O)CC(N)C(=O)O (stereo unspecified) | – | 234 | – | – | – | – | – | –
CCCCCCCCCCCC(=O)OCc1ccccc1 | – | 8.5 | – | – | – | – | – | –
CC(C)OC(=O)Nc1cccc(Cl)c1 | – | 41 | – | -3.74 | 2.6 | readily biodegradable | – | –
CCCCCCCCO | 195 | -15.5 | -4.61 | -1.1 | 1.56 | readily biodegradable | 6.03 | –
CCCCCCCCCCCCCC(=O)OC(C)C | – | 3 | – | -4.03 | – | – | – | –

Compound | boiling point [°C] | melting point [°C] | log10 Henry constant (atm·m³/mol) | log10 vapour pressure (mmHg) | log10 Koc (L/kg) | ready biodegradability | log10 Koa | log10 biodegradation half-life (days)
Nc1ccccc1O | – | – | – | – | – | not readily biodegradable | – | –
Cc1ccccc1N=C(N)Nc1ccccc1C | – | – | – | – | – | not readily biodegradable | – | –
Cc1ccc(F)cc1[N+](=O)[O-] | 213 | 27 | – | – | – | – | – | –
CC(C)C12CCC(C)(CC1)O2 | 174 | 1 | – | 0.286 | – | – | – | –
O=C(O)c1cc([N+](=O)[O-])cc([N+](=O)[O-])c1O | – | 170 | – | – | – | – | – | –
CC(=O)OCCBr | 162 | -13.8 | – | – | – | – | – | –
CN(CC(=O)O)N=O | – | 66.5 | – | – | – | – | – | –
C=C[Si](C)(C)O[Si](C)(C)C=C | 39 | -99.7 | – | – | – | – | – | –
CCCCCC | – | – | – | 2.18 | – | readily biodegradable | 2.4 | 0.954
Clc1ccc2cc[nH]c2c1 | – | 90 | – | – | – | – | – | –
CCCCCCCCCCCCCCCCCC(=O)OCCC(C)C | – | 25.5 | – | – | – | – | – | –
OCCOCCO | 246 | -10.4 | – | -2.24 | – | readily biodegradable | – | –
CCC(=O)Nc1nc(C)c(Cl)s1 | – | 159 | – | – | – | – | – | –
CC(C)C(O)(c1ccc(OC(F)(F)F)cc1)c1cncnc1 (stereo unspecified) | 264 | 95 | – | -6.44 | – | – | – | –
O=C(/C=C/C=C/c1ccc2c(c1)OCO2)N1CCCCC1 | – | 132 | – | – | – | – | – | –
CCC(C#N)CC#N (stereo unspecified) | 264 | -41 | – | -1.72 | – | – | – | –
Cc1c(Cl)ccc(O)c1Cl | 236 | 58 | – | – | – | – | – | –
CCOc1ccccc1OS(=O)(=O)NC(O)=Nc1nc(OC)cc(OC)n1 | – | 145 | – | – | – | – | – | –
O=C(O)COc1c(Cl)ccc(Cl)c1Cl | – | 148 | – | – | – | – | – | –
C=CBr | 15.8 | -138 | – | 3.01 | – | – | – | –
OCCCCC(F)(F)F | 148 | – | – | – | – | – | – | –
CC(C(O)c1ccccc1)N(C)C/C=C/c1ccccc1 (stereo unspecified) | – | 75 | – | – | – | – | – | –
O=c1oc(=O)c2cc3c(=O)oc(=O)c3cc12 | – | – | – | – | – | readily biodegradable | – | –
COC(=O)N(C(=O)N1COC2(C(=O)OC)Cc3cc(Cl)ccc3C2=N1)c1ccc(OC(F)(F)F)cc1 (stereo unspecified) | – | 140 | – | – | – | – | – | –
CCCCCCCCCCCCc1ccccc1 | 328 | 3 | – | -4.29 | – | readily biodegradable | – | –

same assay, conditions: fish

Compound | log10 BCF | log10 biotransformation half-life (days)
CCOc1ccc(N)cc1 | 1 | -1.24
CCNc1cccc2ccccc12 | 2.32 | 0.43
CC1(C)[C@H](C(=O)O[C@H](C#N)c2cccc(Oc3ccccc3)c2)[C@@H]1C=C(Br)Br | 2.51 | 0.51
CCc1ccc(CC)cc1 | 2.68 | -0.01
ClC(Cl)=C(c1ccc(Cl)cc1)c1ccc(Cl)cc1 | 4.08 | 1.71
O=[N+]([O-])c1ccc(Cl)cc1C(F)(F)F | 1.87 | -0.36
c1ccc(Oc2ccccc2)cc1 | 2.5 | -0.09
Cc1ccc(Cl)cc1[N+](=O)[O-] | 1.92 | –
Clc1ccc(Oc2c(Cl)cc(Cl)cc2Cl)c(Cl)c1 | – | 1.69
